Source: ChEMBL document CHEMBL1201862, “PubChem BioAssay data set” (2004)
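Grown in 96-well plates, cells were treated for 48 hours with each compound at five concentrations. Insufficient inhibition: endpoint recorded as highest concentration tested. GI50 is the concentration that inhibits growth by half.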 Activity calls are given as the source filed them. Cut-off read from the data, not from the text of the source: active = GI50 up to about 1.1 µM and inactive = higher.

Assays:
Experiment in all cases: growth of human tumour cells (NCI), 48 h
A549 = system: A549
ACHN = system: ACHN
COLO 205 = system: COLO 205
HCC 2998 = system: HCC 2998
HCT-15 = system: HCT-15
HOP-62 = system: HOP-62
HT-29 = system: HT-29
IGROV-1 = system: IGROV-1
MDA-N = system: MDA-N
MOLT-4 = system: MOLT-4
NCI-H226 = system: NCI-H226
OVCAR-3 = system: OVCAR-3
OVCAR-4 = system: OVCAR-4
RPMI-8226 = system: RPMI-8226
SF-539 = system: SF-539
SK-MEL-2 = system: SK-MEL-2
SR = system: SR
U-251 = system: U-251
UO-31 = system: UO-31

SMILES | GI50 (A549) | GI50 (ACHN) | GI50 (COLO 205) | GI50 (HCC 2998) | GI50 (HCT-15) [µM] | GI50 (HOP-62) | GI50 (HT-29) | GI50 (IGROV-1) | GI50 (MDA-N) | GI50 (MOLT-4) | GI50 (NCI-H226) | GI50 (OVCAR-3) | GI50 (OVCAR-4) | GI50 (RPMI-8226) | GI50 (SF-539) | GI50 (SK-MEL-2) | GI50 (SR) | GI50 (U-251) | GI50 (UO-31)
c1ccc2c3ccn4ccc5c6ccccc6[nH]c5c4c-3nc2c1 | 0.745 µM (active) | 1.43 µM (inactive) | 0.583 µM (active) | 0.453 µM (active) | 0.344 | 1.31 µM (inactive) | 0.391 µM (active) | 1.25 µM (inactive) | 1.34 µM (inactive) | 1.42 µM (inactive) | 1.67 µM (inactive) | 0.236 µM (active) | 0.394 µM (active) | 0.255 µM (active) | 1.55 µM (inactive) | 1.72 µM (inactive) | 0.0594 µM (active) | 0.155 µM (active) | 1.39 µM (inactive)
O=C(O)C(CCc1ccccn1)c1ccccc1 (stereo not given) | > 100 µM (inactive) | > 100 µM (inactive) | > 100 µM (inactive) | > 100 µM (inactive) | > 100 | > 100 µM (inactive) | > 100 µM (inactive) | > 100 µM (inactive) | > 100 µM (inactive) | > 100 µM (inactive) | > 100 µM (inactive) | > 100 µM (inactive) | > 100 µM (inactive) | > 100 µM (inactive) | > 100 µM (inactive) | > 100 µM (inactive) | > 100 µM (inactive) | > 100 µM (inactive) | > 100 µM (inactive)
Oc1c(Br)c(-c2ccccc2)nc2ccccc12 | 1.98 µM (inactive) | 35.8 µM (inactive) | > 21.7 µM (inactive) | > 10 µM (inactive) | > 62.5 | > 62.1 µM (inactive) | > 60.4 µM (inactive) | 9.55 µM (inactive) | 39.2 µM (inactive) | 8.15 µM (inactive) | 8.47 µM (inactive) | 50.5 µM (inactive) | 39.6 µM (inactive) | 20.7 µM (inactive) | 82.8 µM (inactive) | > 10 µM (inactive) | 29.8 µM (inactive) | 98.4 µM (inactive) | 4.71 µM (inactive)
COC1/C=C/C(C)C(C(C)C(OC)C(C)CCC(=O)C(C)C(C/C=C/N(C)C=O)OC)OC(=O)/C=C/C=C(\C)CC(OC)C(OC)C2=CC(=O)O[C@@H](C(C)C(OC)CC(OC)/C=C/C(C)C(O)C1)[C@H]2O (stereo not given in full) | 0.15 µM (active) | 0.0914 µM (active) | 0.0721 µM (active) | 0.0716 µM (active) | 0.0479 | 0.0705 µM (active) | 0.0615 µM (active) | 0.119 µM (active) | 0.208 µM (active) | 0.105 µM (active) | 0.06 µM (active) | 0.0681 µM (active) | 0.121 µM (active) | 0.0356 µM (active) | 0.128 µM (active) | 0.0276 µM (active) | 0.0809 µM (active) | 0.111 µM (active) | 0.137 µM (active)
O=C(O)CCCCCNC(=O)CCC(CN(CC(=O)OCc1ccccc1)CC(=O)OCc1ccccc1)N(CC(=O)OCc1ccccc1)CC(=O)OCc1ccccc1 (stereo not given) | 17.4 µM (inactive) | 18.1 µM (inactive) | 16.7 µM (inactive) | 15.2 µM (inactive) | 17.9 | 20.1 µM (inactive) | 17.9 µM (inactive) | 17.6 µM (inactive) | 18.2 µM (inactive) | 15.2 µM (inactive) | 22.9 µM (inactive) | 17.3 µM (inactive) | 16.9 µM (inactive) | 10.3 µM (inactive) | 20.7 µM (inactive) | 16 µM (inactive) | 20.9 µM (inactive) | 22 µM (inactive) | 15.8 µM (inactive)
COc1cc(C2c3cc4c(cc3OC(NNc3ccccc3)C2C)OCO4)cc(OC)c1O (stereo not given) | 1.41 µM (inactive) | 0.159 µM (active) | 2.93 µM (inactive) | 0.331 µM (active) | 0.313 | 5.66 µM (inactive) | 1.23 µM (inactive) | 3.2 µM (inactive) | 0.294 µM (active) | 0.275 µM (active) | 3.56 µM (inactive) | 2.36 µM (inactive) | 13.3 µM (inactive) | 0.995 µM (active) | 0.596 µM (active) | 0.724 µM (active) | 0.207 µM (active) | 2.55 µM (inactive) | 1.03 µM (active)
OC1CCCC1C(O)(C(F)(F)F)C(F)(F)F (stereo not given) | > 100 µM (inactive) | > 100 µM (inactive) | > 100 µM (inactive) | > 100 µM (inactive) | > 100 | > 100 µM (inactive) | > 100 µM (inactive) | > 100 µM (inactive) | > 100 µM (inactive) | > 100 µM (inactive) | > 100 µM (inactive) | > 100 µM (inactive) | > 100 µM (inactive) | > 100 µM (inactive) | > 100 µM (inactive) | > 100 µM (inactive) | > 100 µM (inactive) | > 100 µM (inactive) | > 100 µM (inactive)
O=C1/C(=C\c2cccc(Oc3ccccc3)c2)S(=O)(=O)C(c2ccccc2)N1c1ccc(Cl)cc1 (stereo not given) | 42.9 µM (inactive) | 12.9 µM (inactive) | 14.3 µM (inactive) | 56.1 µM (inactive) | 13.7 | 27.8 µM (inactive) | 14.3 µM (inactive) | 14.7 µM (inactive) | 14.6 µM (inactive) | 4.59 µM (inactive) | 43.1 µM (inactive) | 14.4 µM (inactive) | 13.1 µM (inactive) | 12.3 µM (inactive) | 23.7 µM (inactive) | 8.36 µM (inactive) | 8.2 µM (inactive) | 16 µM (inactive) | 13.7 µM (inactive)
O=C(N/C=C1\C(=O)Oc2ccccc2C1=O)Oc1ccccc1 | 32.5 µM (inactive) | 20.9 µM (inactive) | 41.4 µM (inactive) | 24.8 µM (inactive) | 23.7 | 17.6 µM (inactive) | 40.8 µM (inactive) | 20.7 µM (inactive) | 18.1 µM (inactive) | 24.9 µM (inactive) | 14.4 µM (inactive) | 17 µM (inactive) | 22.5 µM (inactive) | 91.4 µM (inactive) | 16 µM (inactive) | 14.5 µM (inactive) | 18 µM (inactive) | 23.9 µM (inactive) | 16.4 µM (inactive)
CC(=O)CCC[C@H](C)[C@@H](O)[C@@H]1O[C@H]([C@@]2(C)CCC(=O)O2)C[C@H]1C(=O)O | > 100 µM (inactive) | > 100 µM (inactive) | > 100 µM (inactive) | > 100 µM (inactive) | > 100 | > 100 µM (inactive) | > 100 µM (inactive) | > 100 µM (inactive) | > 100 µM (inactive) | > 100 µM (inactive) | > 100 µM (inactive) | > 100 µM (inactive) | > 100 µM (inactive) | > 100 µM (inactive) | > 100 µM (inactive) | > 100 µM (inactive) | 37.2 µM (inactive) | > 100 µM (inactive) | > 100 µM (inactive)
C/C(=N\Nc1ncnc2ccccc12)c1ccccn1 | 0.0316 µM (active) | 0.0169 µM (active) | < 0.01 µM (active) | 0.105 µM (active) | < 0.0197 | 0.0355 µM (active) | 0.0182 µM (active) | < 0.0162 µM (active) | 0.384 µM (active) | < 0.0136 µM (active) | 0.0276 µM (active) | < 0.0166 µM (active) | 10.7 µM (inactive) | 0.019 µM (active) | 0.0279 µM (active) | 2.79 µM (inactive) | 0.0317 µM (active) | < 0.0214 µM (active) | 0.0516 µM (active)
O=C1OCC/C1=C/c1ccc(/N=N/c2c(O)ccc3ccccc23)cc1 | 18.6 µM (inactive) | 17.5 µM (inactive) | 25.1 µM (inactive) | 20.9 µM (inactive) | 24.9 | 21.9 µM (inactive) | 19.4 µM (inactive) | 25.8 µM (inactive) | 13.8 µM (inactive) | 19.5 µM (inactive) | 19.4 µM (inactive) | 18.1 µM (inactive) | 18.6 µM (inactive) | 21.6 µM (inactive) | 18.4 µM (inactive) | 26.7 µM (inactive) | 15.2 µM (inactive) | 18.7 µM (inactive) | 19.1 µM (inactive)
CCCCCCCCCCCCCCCCC1=CC(=O)C=C(OC)C1=O | 89.5 µM (inactive) | > 100 µM (inactive) | 55.6 µM (inactive) | > 100 µM (inactive) | 66.8 | > 100 µM (inactive) | > 100 µM (inactive) | > 100 µM (inactive) | > 100 µM (inactive) | > 100 µM (inactive) | > 100 µM (inactive) | > 100 µM (inactive) | > 100 µM (inactive) | 91.2 µM (inactive) | 47.3 µM (inactive) | > 100 µM (inactive) | 34.3 µM (inactive) | 32.5 µM (inactive) | > 100 µM (inactive)
CN(C)CCNC(=O)c1cc([N+](=O)[O-])cc2c1Oc1ccccc1O2 | 13.5 µM (inactive) | 6.46 µM (inactive) | 13.7 µM (inactive) | 3.79 µM (inactive) | > 10 | 22.5 µM (inactive) | 17.3 µM (inactive) | 23.4 µM (inactive) | 58.2 µM (inactive) | 3.94 µM (inactive) | 12.6 µM (inactive) | 41.8 µM (inactive) | 40.6 µM (inactive) | 18.6 µM (inactive) | 24.8 µM (inactive) | 18.2 µM (inactive) | 11.7 µM (inactive) | 29.4 µM (inactive) | 11.4 µM (inactive)
CC(C)c1cc2c(c(O)c1O)[C@@]1(C(=O)O)CCCC(C)(C)[C@@H]1CC2 [CARNOSIC ACID] | 18.2 µM (inactive) | 13.4 µM (inactive) | 24.2 µM (inactive) | 13.2 µM (inactive) | 27.3 | 27.2 µM (inactive) | 16.3 µM (inactive) | 19.4 µM (inactive) | 32.4 µM (inactive) | 11.8 µM (inactive) | 10.4 µM (inactive) | 22.7 µM (inactive) | 39.5 µM (inactive) | 7.48 µM (inactive) | 18.7 µM (inactive) | 18.9 µM (inactive) | 5.33 µM (inactive) | 13.8 µM (inactive) | 14.4 µM (inactive)
